US8809001B2, “High throughput assays for inhibitors and activators of PAQR receptors” (University of Florida Research Foundation, Inc., priority 2007, dated 2014)

Target: T1, PAQR9 (Homo sapiens, UniProt Q6ZVX9)
T1 construct: expressed in transfected cells; host or cells: Saccharomyces cerevisiae BY4742, GAL1-driven pYES260 plasmid
T1 sequence (Q6ZVX9 1-377): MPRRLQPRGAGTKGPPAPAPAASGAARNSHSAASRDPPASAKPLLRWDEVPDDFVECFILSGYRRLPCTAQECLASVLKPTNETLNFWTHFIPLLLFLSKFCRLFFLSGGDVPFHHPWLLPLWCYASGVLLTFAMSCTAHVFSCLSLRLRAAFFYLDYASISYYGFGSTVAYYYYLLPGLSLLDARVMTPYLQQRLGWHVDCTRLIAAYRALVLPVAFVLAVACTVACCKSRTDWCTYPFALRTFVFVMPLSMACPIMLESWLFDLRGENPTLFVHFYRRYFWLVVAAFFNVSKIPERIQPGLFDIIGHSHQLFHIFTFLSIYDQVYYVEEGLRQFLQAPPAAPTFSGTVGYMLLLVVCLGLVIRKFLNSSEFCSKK
Test: FET3-lacZ reporter repression in yeast expressing PAQR9
Type: cell-based
Source text: Plasmids and primers. Human PAQRs were cloned into various vectors by PCR from commercially/publically available cDNAs. PAQRs were cloned into the pYES260 (Melcher, 2000), pRS316 (Liu et al., 1992) or pGREG536 (Jansen et al., 2005) expression vectors using gap repair. The pJK90 plasmid containing a Dual Topology Reporter (DTR)-tagged OST4 gene driven by the constitutive TPI1 promoter was kindly provided by Dr. Gunnar von Heijne (Stockholm University) (Kim et al., 2003). The OST4 open reading frame in pJK90 was replaced with the PAQR6 and mPRα open reading frames by gap repair. Primers for all cloning reactions are listed herein. Proteins expressed in pYES260 have an N-terminal 6×-histidine tag followed by a TEV protease cleavage site. Proteins expressed in pGREG536 have an N-terminal 7×-HA tag. Proteins expressed in the pRS316 vector are untagged. The pYES260, pRS316 and pGREG536 vectors allow for galactose-inducible expression via the GAL1 promoter. […] The FET3-lacZ plasmid was previously described (Kupchak et al., 2007). Plasmids derived from pADM4 carrying hyperactive alleles of Gpa1p (Gpa1p^Q323L) (Slessareva et al., 2006) and Gpa2p (Gpa2p^Q300L) (Harashima et al., 2002) driven by the ADH1 promoter were kindly provided by Dr. Henrik Dohlman (UNC Chapel Hill). A pRS316-based plasmid containing the STE2 gene under the control of the GAL1 promoter (Feng et al., 2000) was kindly provided by Dr. Nicholas G. Davis (Wayne State University).
Assays and growth conditions. Strains were maintained using standard protocol and grown in synthetic defined (SD) media with the appropriate amino acids to match the auxotrophies of the individual strains. Low Iron Medium (LIM) contains EDTA to limit iron-bioavailability and its composition has been previously described (Kupchak et al., 2007). […] Cells were allowed to grow to mid-log phase at which time the activity of the FET3 gene was monitored using a FET3-lacZ promoter-reporter construct. lacZ activities are presented as a percentage of activity seen in untreated cells expressing the appropriate empty expression vector control. […]

Compound: CC(=O)[C@H]1CC[C@H]2[C@@H]3CCC4=CC(=O)CC[C@]4(C)[C@H]3CC[C@]12C [Progesterone, progesterone]
- EC50 (PAQR9, Table 3): 13.8 nM
- EC50 for progesterone activation of PAQR9 relative to the other four Class II receptors (higher than the other four Class II receptors): approximately 10 fold
